The structures appear in SMILES notation.

The target in this assay is Pol Theta (1-894) (Homo sapiens (Human), UniProt O75417). Nature of the assay: Biochemical Pol Theta (1-894) ATPase IC50 assay (ADP-Glo, ssDNA substrate). The note with it: ADP-Glo assay with ssDNA substrate, room temperature. How it is done: Baculovirus Expression of Human POL theta (1-894)
Chain of Pol Theta (1-894) (O75417 1-894): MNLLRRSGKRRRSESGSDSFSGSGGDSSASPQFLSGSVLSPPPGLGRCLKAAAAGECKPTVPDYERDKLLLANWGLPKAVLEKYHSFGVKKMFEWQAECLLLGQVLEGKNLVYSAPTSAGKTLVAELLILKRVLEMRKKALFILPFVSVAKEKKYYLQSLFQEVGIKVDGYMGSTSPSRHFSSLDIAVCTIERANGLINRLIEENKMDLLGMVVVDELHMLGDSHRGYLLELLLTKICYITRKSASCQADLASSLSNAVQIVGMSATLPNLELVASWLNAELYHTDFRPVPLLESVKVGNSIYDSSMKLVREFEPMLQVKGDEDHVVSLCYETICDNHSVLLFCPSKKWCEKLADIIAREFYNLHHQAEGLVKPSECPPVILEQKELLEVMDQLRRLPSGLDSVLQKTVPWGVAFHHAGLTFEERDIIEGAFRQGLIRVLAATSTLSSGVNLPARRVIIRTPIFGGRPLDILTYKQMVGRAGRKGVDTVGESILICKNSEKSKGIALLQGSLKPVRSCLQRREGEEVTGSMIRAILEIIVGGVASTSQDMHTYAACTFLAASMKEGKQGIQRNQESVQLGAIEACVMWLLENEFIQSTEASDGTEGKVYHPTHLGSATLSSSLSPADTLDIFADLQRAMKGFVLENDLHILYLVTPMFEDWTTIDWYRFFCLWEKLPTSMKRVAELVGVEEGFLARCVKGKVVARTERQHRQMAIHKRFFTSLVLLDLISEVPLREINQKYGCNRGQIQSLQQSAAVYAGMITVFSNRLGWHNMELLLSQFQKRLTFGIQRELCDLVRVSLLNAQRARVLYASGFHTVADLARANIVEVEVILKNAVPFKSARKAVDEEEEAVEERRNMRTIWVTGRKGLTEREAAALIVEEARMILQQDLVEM
Human POL Theta (1-894)-His-pFastBac1 baculovirus samples were generated using the Bac-to-Bac baculovirus expression system (Invitrogen) according to the manufacturer's protocol. […] Baculovirus amplification was achieved using infected SF9 cells at 1:2000 virus/cells ratios, and grown for 96 hours at 27° C. post-transfection. The expression scaled up for each protein was carried out in the flask 3 L from CORNING. 4 L of 3×10^6 cells/mL Sf9 cells (Expression System, Invitrogen) grown in SF900TM II SFM insect medium (Expression System) were infected with virus stock at 1:200 virus/cell ratios, and grown for 48 hours at 27° C. post-transfection. The infected cell culture was harvested by centrifugation at 6000 rpm for 15 min 4° C. in a SORVALL LYNX6000 centrifuge. The cell pellets were stored at −80° C.
The human POL Theta (1-894)-His produced as described above, were purified from Sf9 baculovirus-infected insect cell paste. The cells were lysed using sonication method, and the lysates were clarified by centrifugation.
Enzymatic reactions of Pol Theta (1-894) were performed using ADP-Glo assay with ssDNA substrate. Pol Theta (1-894) was expressed in baculovirus expression system. The inhibition activities testing for the compound disclosed herein were carried out at room temperature in assay buffer containing 40 mM Tris pH 7.5, 20 mM MgCl2, 1 mM DTT, 0.01% BSA and 0.05% Tween-20. Compounds in DMSO were dispensed into wells of a black 384 well plate (Corning 4514) using D300e digital dispenser (Tecan). The ranges of compounds final concentration were 2.62 nM˜10000 nM. 3 μL 2× enzyme solution containing 12.5 nM enzyme was added to wells. […] After 1 hour reaction, 5 μL ADP-Glo reagent (Promga V9102) was added and incubated for 40 minutes. 10 μL Kinase Detection reagent was added and incubated for 40 minutes. Luminescence was measured on a microplate reader (PHERAstar FSX, BMG labtech). The IC50 values were calculated based on inhibition of enzyme activity in the presence of increasing concentrations of compounds.
A word on the IC50: it is the concentration needed to halve the response being measured. Low readings indicate higher potency, high ones lower potency. For the compound `N#Cc1ccc(C(=O)Nc2nc3ccc(-c4ccc(Cl)cc4)nc3s2)c(N2CCOCC2)n1` [Example 1, N-(5-(4-chlorophenyl)thiazolo[5,4-b]pyridin-2-yl)-6-cyano-2-morpholinonicotinamide], inhibition was half-maximal at 347 nM (IC50).

The compound `COc1ccccc1-c1ccncc1C(=O)Nc1nc2ccc(-c3ccc(Cl)cc3)nc2s1` [Example 2, N-(5-(4-chlorophenyl)thiazolo[5,4-b]pyridin-2-yl)-4-(2-methoxyphenyl)nicotinamide] returned a half-maximal inhibitory concentration (IC50) of 191 nM.

`COc1ccccc1-c1cnccc1C(=O)Nc1nc2ccc(-c3ccc(Cl)cc3)nc2s1` [Example 3, N-(5-(4-chlorophenyl)thiazolo[5,4-b]pyridin-2-yl)-3-(2-methoxyphenyl)isonicotinamide] registered a half-inhibitory concentration (IC50) of 145 nM.

For the compound `CC(=O)Nc1ccc(-c2ccc3nc(NC(=O)c4ccc(C#N)nc4N4CCOCC4)sc3n2)cc1` [Example 5, N-(5-(4-acetamidophenyl)thiazolo[5,4-b]pyridin-2-yl)-6-cyano-2-morpholinonicotinamide], the IC50 was 186 nM.

Compound `COc1ccccc1-c1nc(C#N)ccc1C(=O)Nc1nc2ccc(-c3ccc(Cl)cc3)nc2s1` [Example 6, N-(5-(4-chlorophenyl)thiazolo[5,4-b]pyridin-2-yl)-6-cyano-2-(2-methoxyphenyl)nicotinamide] came in with a half-inhibitory concentration (IC50) of 359 nM.

Turning to `COc1ccc(C#N)cc1-c1nc(C#N)ccc1C(=O)Nc1nc2ccc(-c3ccc(Cl)cc3)nc2s1` [Example 7, N-(5-(4-chlorophenyl)thiazolo[5,4-b]pyridin-2-yl)-6-cyano-2-(5-cyano-2-methoxyphenyl)nicotinamide], 92 nM corresponded to half-maximal inhibition (IC50).

The compound `COc1ccc(C#N)cc1-c1cc(C)ncc1C(=O)Nc1nc2ccc(-c3ccc(Cl)cc3)nc2s1` [Example 8, N-(5-(4-chlorophenyl)thiazolo[5,4-b]pyridin-2-yl)-4-(5-cyano-2-methoxyphenyl)-6-methylnicotinamide] came in with a half-maximal inhibitory concentration (IC50) of 12 nM.

For `COc1ccccc1-c1cnncc1C(=O)Nc1nc2ccc(-c3ccc(Cl)cc3)nc2s1` [Example 9, N-(5-(4-chlorophenyl)thiazolo[5,4-b]pyridin-2-yl)-5-(2-methoxyphenyl)pyridazine-4-carboxamide], it took 20 nM to reach half-maximal inhibition (IC50).

On to `COc1cccc(F)c1-c1nc(C#N)ccc1C(=O)Nc1nc2ccc(-c3ccc(Cl)cc3)nc2s1` [Example 10, N-(5-(4-chlorophenyl)thiazolo[5,4-b]pyridin-2-yl)-6-cyano-2-(2-fluoro-6-methoxyphenyl)nicotinamide], for which it took 149 nM to reach half-maximal inhibition (IC50).

On to `COc1ccc(C#N)cc1-c1cnccc1C(=O)Nc1nc2ccc(-c3ccc(Cl)cc3)nc2s1` [Example 11, N-(5-(4-chlorophenyl)thiazolo[5,4-b]pyridin-2-yl)-3-(5-cyano-2-methoxyphenyl)isonicotinamide], for which it took 57 nM to reach half-maximal inhibition (IC50).

Compound `COc1ccccc1-n1cncc1C(=O)Nc1nc2ccc(-c3ccc(Cl)cc3)nc2s1` [Example 12, N-(5-(4-chlorophenyl)thiazolo[5,4-b]pyridin-2-yl)-1-(2-methoxyphenyl)-1H-imidazole-5-carboxamide] gave an IC50 of 324 nM.

The compound `N#Cc1ccc(C(=O)Nc2nc3ccc(-c4ccc(Cl)cc4)nc3s2)c(N2CCNC(=O)C2)n1` [Example 13, N-(5-(4-chlorophenyl)thiazolo[5,4-b]pyridin-2-yl)-6-cyano-2-(3-oxopiperazin-1-yl)nicotinamide] gave an IC50 of 147 nM.

`COc1ccccc1-c1cc(C)ncc1C(=O)Nc1nc2ccc(-c3ccc(Cl)cc3)nc2s1` [Example 14, N-(5-(4-chlorophenyl)thiazolo[5,4-b]pyridin-2-yl)-4-(2-methoxyphenyl)-6-methylnicotinamide] had an IC50 of 143 nM.

In turn, `Cn1nccc1-c1ccc2nc(NC(=O)c3ccc(C#N)nc3N3CCOCC3)sc2n1` [Example 15, 6-cyano-N-(5-(1-methyl-1H-pyrazol-5-yl)thiazolo[5,4-b]pyridin-2-yl)-2-morpholinonicotinamide] yielded a 50% inhibitory concentration (IC50) of 206 nM.

With `COc1ccccc1-c1cnncc1C(=O)Nc1nc2ccc(-c3ccc(NC(C)=O)cc3)nc2s1` [Example 16, N-(5-(4-acetamidophenyl)thiazolo[5,4-b]pyridin-2-yl)-5-(2-methoxyphenyl)pyridazine-4-carboxamide], 8.2 nM corresponded to half-maximal inhibition (IC50).

On to `COc1ccc(C#N)cc1-c1cc(C)ncc1C(=O)Nc1nc2ccc(-c3ccc(NC(C)=O)cc3)nc2s1` [Example 17, N-(5-(4-acetamidophenyl)thiazolo[5,4-b]pyridin-2-yl)-4-(5-cyano-2-methoxyphenyl)-6-methylnicotinamide], for which 8.1 nM corresponded to half-maximal inhibition (IC50).

With `COc1ccc(C#N)cc1-c1cc(C)ncc1C(=O)Nc1nc2ccc(-c3ccc(NS(C)(=O)=O)cc3)nc2s1` [Example 18, 4-(5-cyano-2-methoxyphenyl)-6-methyl-N-(5-(4-(methylsulfonamido)phenyl)thiazolo[5,4-b]pyridin-2-yl)nicotinamide], the IC50 is 11 nM.

In turn, `COc1ccc(C#N)cc1-c1cc(C)ncc1C(=O)Nc1nc2ccc(-c3ccc(C#N)cc3)nc2s1` [Example 19, 4-(5-cyano-2-methoxyphenyl)-N-(5-(4-cyanophenyl)thiazolo[5,4-b]pyridin-2-yl)-6-methylnicotinamide] yielded an IC50 of 8.5 nM.

Consider `COc1ccc(C#N)cc1-c1cc(C)ncc1C(=O)Nc1nc2ccc(-c3ccc(C4CC4)cc3)nc2s1` [Example 20, 4-(5-cyano-2-methoxyphenyl)-N-(5-(4-cyclopropylphenyl)thiazolo[5,4-b]pyridin-2-yl)-6-methylnicotinamide], for which the IC50 stood at 54 nM.

Regarding `COc1ccc(C#N)cc1-c1cc(C)ncc1C(=O)Nc1nc2ccc(-c3ccc(C(N)=O)cc3)nc2s1` [Example 21, N-(5-(4-carbamoylphenyl)thiazolo[5,4-b]pyridin-2-yl)-4-(5-cyano-2-methoxyphenyl)-6-methylnicotinamide], the IC50 is 81 nM.

With `COc1ccc(C#N)cc1-c1cnccc1C(=O)Nc1nc2ccc(-c3ccc(NC(C)=O)cc3)nc2s1` [Example 22, N-(5-(4-acetamidophenyl)thiazolo[5,4-b]pyridin-2-yl)-3-(5-cyano-2-methoxyphenyl)isonicotinamide], the IC50 came out at 33 nM.

Turning to `COc1ccc(C#N)cc1-c1cnncc1C(=O)Nc1nc2ccc(-c3ccc(NC(C)=O)cc3)nc2s1` [Example 23, N-(5-(4-acetamidophenyl)thiazolo[5,4-b]pyridin-2-yl)-5-(5-cyano-2-methoxyphenyl)pyridazine-4-carboxamide], the IC50 was found to be 22 nM.

Take `COc1ccc(C(F)(F)F)cc1-c1cc(C)ncc1C(=O)Nc1nc2ccc(-c3ccc(NC(C)=O)cc3)nc2s1` [Example 24, N-(5-(4-acetamidophenyl)thiazolo[5,4-b]pyridin-2-yl)-4-(2-methoxy-5-(trifluoromethyl)phenyl)-6-methylnicotinamide]: the concentration for half-maximal inhibition (IC50) amounted to 62 nM.

For the compound `COc1ccc(F)cc1-c1cc(C)ncc1C(=O)Nc1nc2ccc(-c3ccc(NC(C)=O)cc3)nc2s1` [Example 25, N-(5-(4-acetamidophenyl)thiazolo[5,4-b]pyridin-2-yl)-4-(5-fluoro-2-methoxyphenyl)-6-methylnicotinamide], the IC50 was 54 nM.

Take `COc1ccc(C(N)=O)cc1-c1cc(C)ncc1C(=O)Nc1nc2ccc(-c3ccc(NC(C)=O)cc3)nc2s1` [Example 26, N-(5-(4-acetamidophenyl)thiazolo[5,4-b]pyridin-2-yl)-4-(5-carbamoyl-2-methoxyphenyl)-6-methylnicotinamide]: the IC50 turned out to be 189 nM.
